Laboratory results published in patent publication US20180305370A1 (ORPHOMED, INC., priority 2015, published 2018).
Read-outs that look alike come from different tables or passages of the source.

Key:
ORL-1 = ORL-1 (Homo sapiens, UniProt P41146); details: cited from earlier work
[1] = in vivo; cited from earlier work
[2] = cited from earlier work
[3] = for stability over time: 28 months, room temperature
human liver microsomes = assay: Metabolic stability in human liver microsomes; details: 1 μM, human liver microsomes 1 mg protein/mL, up to 120 min, FIG. 1
[4] = In vivo pharmacokinetic study, IV and oral gavage
Experimental: The animal pharmacokinetic studies were conducted at Johns Hopkins Medical Institute using CD-1 mice (weighing about 35 gm, n=3 per time point). […] Blood collected at 0, 30 min and 1, 2, 6 and 24 hours post-dose. Blood samples for the drug were analyzed after harvesting the plasma and by LC/MS/MS as follows:
Extracts were centrifuged at 16000×g at 4° C. for 5 minutes. Supernatants (250 μL) were transferred to a new tube and dried under N2 at 45° C. for 1 hour. Samples were reconstituted with 100 μL of 30% acetonitrile, vortexed and centrifuged. Supernatants (90 μL) were transferred to LC vials and 10 μL was injected on LC/MS.

[5] = test system: formalin-induced hind paw licking; assay: Analgesia, formalin paw mouse study (hind paw licking time)

Sequence of ORL-1 (P41146 whole entry, species assumed): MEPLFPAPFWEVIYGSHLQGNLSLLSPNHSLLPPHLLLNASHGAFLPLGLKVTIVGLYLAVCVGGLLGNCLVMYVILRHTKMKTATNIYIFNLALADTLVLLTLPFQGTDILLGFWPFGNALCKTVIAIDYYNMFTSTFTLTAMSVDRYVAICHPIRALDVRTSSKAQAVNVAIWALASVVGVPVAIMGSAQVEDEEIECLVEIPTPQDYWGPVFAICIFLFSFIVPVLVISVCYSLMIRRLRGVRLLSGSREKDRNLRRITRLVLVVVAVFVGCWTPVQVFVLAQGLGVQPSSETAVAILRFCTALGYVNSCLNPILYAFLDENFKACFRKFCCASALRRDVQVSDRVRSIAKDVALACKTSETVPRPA

Compound	Activity (ORL-1)	analgesic potency compared with morphine [1]	absolute bioavailability after an oral dose [2]	stability over time ([3]; listed as EGE conjugate)	stability over time ([3]; listed as compound of the invention)	HPLC Purity, September 2015 ([3]; hydrochloride salt, after 28 months at room temperature in clear glass vials)	HPLC Purity, May 2013 ([3]; hydrochloride salt, immediately after synthesis, stability baseline)	metabolism in presence of microsomal enzymes (human liver microsomes)	absolute bioavailability (ratio of area under the concentration curve after oral and IV dose) ([4]; CD-1 mice, 10 mg/kg oral gavage vs IV, FIG. 6)	bioavailability, less than morphine ([4]; animal studies versus morphine)	analgesic effect ([5]; 5 mg/kg IP, mice, FIG. 9)	activity, less than morphine ([5]; animal studies versus morphine (Example 7))
CO[C@]12CC[C@@]3(C[C@@H]1[C@](C)(O)C(C)(C)C)[C@H]1Cc4ccc(O)c5c4[C@@]3(CCN1CC1CC1)[C@H]2O5 [Buprenorphine, buprenorphine]	Agonist	about thirty times more potent	less than 10%	–	–	–	–	–	–	–	–	–
2-[(2S)-2-[(5R,6R,7R,14S)-9α-cyclopropylmethyl-4,5-epoxy-6,14-ethano-3-hydroxy-6-methoxymorphinan-7-yl]-3,3-dimethylbutan-2-ol]-ethanol [EGE buprenorphine hydrochloride]	–	–	–	unchanged over time	significantly more stable	98.7% (AUC)	98.6% (AUC)	rapid metabolism	about 40%	about 40%	rapid analgesic effect	about 2.5%
